Assay results as given in ChEMBL document CHEMBL5137126, “Alliacane-Type Secondary Metabolites from Submerged Cultures of the Basidiomycete Clitocybe nebularis” (J Nat Prod, 2022).
Values after ≈ are worked out from the molar mass of the structure shown.

Key:
L929 = assay: Cytotoxicity against mouse L929 cells assessed as inhibition of cell growth at 0.0006 to 0.037 ug/ml incubated for 5 days by MTT assay; assay type: toxicity, cell-based; details: l929, 120 h, dose 0.0006-0.037 µg/ml, time 5 day
Rhodotorula glutinis = assay: Antifungal activity against Rhodotorula glutinis DSM10134 assessed as inhibition of fungal growth incubated for 48 hrs by serial dilution method; assay type: functional
KB 3-1 = assay: Cytotoxicity against human KB 3-1 cells assessed as inhibition of cell growth incubated for 5 days by MTT assay; assay type: functional, cell-based; details: KB 3-1, 120 h
Wickerhamomyces anomalus = assay: Antifungal activity against Pichia anomala DSM6766 assessed as inhibition of fungal growth incubated overnight by serial dilution method; assay type: functional
Mucor hiemalis = assay: Antifungal activity against Mucor hiemalis DSM2656 assessed as inhibition of fungal growth incubated overnight by serial dilution method; assay type: functional
[1] = test system: Schizosaccharomyces pombe; assay: Antifungal activity against Schizosaccharomyces pombe DSM70572 assessed as inhibition of fungal growth incubated for 48 hrs by serial dilution method; assay type: functional
[2] = Cytotoxicity against mouse L929 cells assessed as inhibition of cell growth incubated for 5 days by MTT assay; assay type: toxicity, cell-based
Bacillus subtilis = assay: Antibacterial activity against Bacillus subtilis DSM 10 assessed as inhibition of bacterial growth incubated overnight by serial dilution method; assay type: functional
Candida albicans = assay: Antifungal activity against Candida albicans DSM1665 assessed as inhibition of fungal growth incubated overnight by serial dilution method; assay type: functional
A549 = assay: Cytotoxicity against human A549 cells assessed as inhibition of cell growth incubated for 5 days by MTT assay; assay type: functional, cell-based; details: A549, 120 h
A-431 = assay: Cytotoxicity against human A-431 cells assessed as inhibition of cell growth incubated for 5 days by MTT assay; assay type: functional, cell-based; details: A-431, 120 h
MCF7 = assay: Cytotoxicity against human MCF7 cells assessed as inhibition of cell growth incubated for 5 days by MTT assay; assay type: functional, cell-based; details: MCF7, 120 h
PC-3 = assay: Cytotoxicity against human PC-3 cells assessed as inhibition of cell growth incubated for 5 days by MTT assay; assay type: functional, cell-based; details: PC-3, 120 h
SK-OV-3 = assay: Cytotoxicity against human SK-OV-3 cells assessed as inhibition of cell growth incubated for 5 days by MTT assay; assay type: functional, cell-based; details: SK-OV-3, 120 h

Compound: C[C@@H]1C(=O)c2occ(CO)c2[C@]2(O)CC(C)(C)C[C@H]12
- Activity (L929): Non-Toxic

Compound: Cc1cc2[nH]cc(C=O)c2c2c1CC(C)(C)C2
- MIC (Rhodotorula glutinis): 4.2 µg/mL (≈ 18.5 µM)
- IC50 (KB 3-1): 21 µM
- MIC (Wickerhamomyces anomalus; Hansenula anomala): 33.3 µg/mL (≈ 146 µM)
- MIC (Mucor hiemalis): 16.6 µg/mL (≈ 73 µM)
- MIC [1]: 33.3 µg/mL (≈ 146 µM)
- IC50 at 5 days [2]: 41 µM
- MIC (Bacillus subtilis): 66.6 µg/mL (≈ 293 µM)
- MIC (Candida albicans): 66.6 µg/mL (≈ 293 µM)

Compound: C[C@@H]1C(=O)c2[nH]cc(CO)c2C2=CC(C)(C)C[C@@H]21
- MIC (Rhodotorula glutinis): 66.6 µg/mL (≈ 271 µM)
- IC50 (KB 3-1): 47 µM
- IC50 at 5 days [2]: 68 µM

Compound: NYSTATIN
- MIC (Rhodotorula glutinis): 1 µg/mL
- MIC (Wickerhamomyces anomalus): 4.6 µg/mL
- MIC (Mucor hiemalis): 9.2 µg/mL
- MIC [1]: 4.2 µg/mL

Compound: C=C(C(=O)O)C1=C2CC(C)(C)C[C@@H]2[C@H](C)CC1=O
- Activity (L929): Non-Toxic

Compound: CN(C)[C@@H]1C(O)=C(C(N)=O)C(=O)[C@@]2(O)C(O)=C3C(=O)c4c(O)cccc4[C@@](C)(O)[C@H]3[C@H](O)[C@@H]12 [OXYTETRACYCLINE]
- MIC (Bacillus subtilis): 9.2 µg/mL (≈ 20 µM)

Compound: C/C(=C\c1csc(C)n1)[C@H]1C[C@H]2O[C@@]2(C)CCC[C@H](C)[C@@H](O)[C@@H](C)C(=O)C(C)(C)[C@H](O)CC(=O)O1
- IC50 (KB 3-1): 0.0028 µM
- IC50 (A549): 0.0034 µM
- IC50 at 5 days [2]: 0.001 µM
- IC50 (A-431): 0.0031 µM
- IC50 (MCF7): 0.0027 µM
- IC50 (PC-3): 0.003 µM
- IC50 (SK-OV-3): 0.0075 µM

Compound: C=C(C(=O)O)[C@]12O[C@]13CC(C)(C)C[C@@H]3[C@H](C)[C@H](O)C2=O
- IC50 (KB 3-1): 18 µM
- IC50 (A549): 53 µM
- IC50 at 5 days [2]: 22 µM
- IC50 (A-431): 7 µM
- IC50 (MCF7): 8 µM
- IC50 (PC-3): 36 µM
- IC50 (SK-OV-3): 20 µM
